Measured values published in ChEMBL document CHEMBL1123500, “Synthesis and antitumor activity of tropolone derivatives. 3” (1986).

What was measured:
[1] = In vitro inhibition of KB cell growth.; assay type: functional, Homo sapiens
P388 [2] = experiment: Antitumor activity in P388 inoculated mice following 10 mg/kg i.p. administration.; assay type: functional, Mus musculus; conditions: route intraperitoneal
P388 [3] = experiment: Antitumor activity against P388, was determined by injecting intraperitoneally in mice, at a dose of 20 mg/kg; assay type: functional, Mus musculus; conditions: route intraperitoneal
P388 [4] = experiment: Antitumor activity in P388 inoculated mice following 5 mg/kg i.p. administration.; assay type: functional, Mus musculus; conditions: route intraperitoneal
P388 [5] = experiment: Antitumor activity against P388, was determined by injecting intraperitoneally in mice, at a dose of 100 mg/kg; assay type: functional, Mus musculus; conditions: route intraperitoneal
P388 [6] = experiment: Antitumor activity against P388, was determined by injecting intraperitoneally in mice, at a dose of 200 mg/kg; assay type: functional, Mus musculus; conditions: route intraperitoneal
P388 [7] = experiment: Antitumor activity against P388, was determined by injecting intraperitoneally in mice, at a dose of 400 mg/kg; assay type: functional, Mus musculus; conditions: route intraperitoneal
P388 [8] = experiment: Antitumor activity against P388, was determined by injecting intraperitoneally in mice, at a dose of 1.3 mg/kg; assay type: functional, Mus musculus; conditions: route intraperitoneal
P388 [9] = experiment: Antitumor activity against P388, was determined by injecting intraperitoneally in mice, at a dose of 2.5 mg/kg; assay type: functional, Mus musculus; conditions: route intraperitoneal
P388 [10] = experiment: Antitumor activity against P388, was determined by injecting intraperitoneally in mice, at a dose of 10 mg/kg; assay type: functional, Mus musculus; conditions: route intraperitoneal
P388 [11] = experiment: Antitumor activity against P388, was determined by injecting intraperitoneally in mice, at a dose of 50 mg/kg; assay type: functional, Mus musculus; conditions: route intraperitoneal
P388 [12] = experiment: Antitumor activity against P388, was determined by injecting intraperitoneally in mice, at a dose of 5 mg/kg; conditions: route intraperitoneal

Row | Compound | Activity [1] | T/C (P388 [2]) | T/C (P388 [3]) | T/C (P388 [4]) | other results
1 | CC(C)c1ccc(C(c2ccc(C(C)C)cc(=O)c2O)c2cccc3ccccc23)c(O)c(=O)c1 | 2.6 µg/mL | 178% | 178% | 180% | –
2 | COc1ccc(C(c2ccc(C(C)C)cc(=O)c2O)C(c2ccc(OC)cc2)c2ccc(C(C)C)cc(=O)c2O)cc1 (stereo unspecified) | 5.2 µg/mL | – | – | – | T/C (P388 [5]): 138%; T/C (P388 [6]): 140%; T/C (P388 [7]): 139%
3 | CC(C)c1ccc(C(c2ccc(C(=O)O)cc2)c2ccc(C(C)C)cc(=O)c2O)c(O)c(=O)c1 | 0.5 µg/mL | 139% | 0% | – | T/C (P388 [8]): 124%; T/C (P388 [9]): 154%
4 | CC(C)c1ccc(C(c2ccc(C(c3ccc(C(C)C)cc(=O)c3O)c3ccc(C(C)C)cc(=O)c3O)cc2)c2ccc(C(C)C)cc(=O)c2O)c(O)c(=O)c1 | 100 µg/mL | 105% | 100% | 107% | –
5 | CCOC(=O)COc1ccc(C(c2ccc(C(C)C)cc(=O)c2O)c2ccc(C(C)C)cc(=O)c2O)cc1 | – | – | 0% | 125% | T/C (P388 [10]): 0%
6 | CC(C)c1ccc(C(c2ccc(OCc3ccccc3)cc2)C(c2ccc(OCc3ccccc3)cc2)c2ccc(C(C)C)cc(=O)c2O)c(O)c(=O)c1 (stereo unspecified) | <100 µg/mL | – | – | – | –
7 | CC(C)c1ccc(C(c2ccc3c(c2)OCO3)c2ccc(C(C)C)cc(=O)c2O)c(O)c(=O)c1 | 0.5 µg/mL | 193% | 186% | 182% | –
8 | CC(C)c1ccc(C(c2ccc([N+](C)(C)C)cc2)c2ccc(C(C)C)cc(=O)c2O)c(O)c(=O)c1.[I-] | 2.5 µg/mL | 95% | 91% | 102% | –
9 | COC(=O)c1ccc(C(c2ccc(C(C)C)cc(=O)c2O)c2ccc(C(C)C)cc(=O)c2O)cc1 | 0.5 µg/mL | 128% | 0% | 145% | –
10 | CC(C)c1ccc(C(c2ccco2)c2ccc(C(C)C)cc(=O)c2O)c(O)c(=O)c1 | – | 0% | – | 177% | T/C (P388 [8]): 132%; T/C (P388 [9]): 142%
11 | CC(C)c1ccc(C(c2ccc(-c3ccccc3)cc2)c2ccc(C(C)C)cc(=O)c2O)c(O)c(=O)c1 | 2.5 µg/mL | 138% | 127% | 111% | –
12 | COc1cc(C(c2ccc(C(C)C)cc(=O)c2O)c2ccc(C(C)C)cc(=O)c2O)cc(OC)c1OC | <0.3 µg/mL | 151% | 162% | 142% | –
13 | CC(C)c1ccc(C(c2ccc(OCC(=O)[O-])cc2)c2ccc(C(C)C)cc(=O)c2O)c(O)c(=O)c1.[Na+] | 2.6 µg/mL | 0% | – | 109% | –
14 | CC(C)c1ccc(C(c2ccc(N)cc2)c2ccc(C(C)C)cc(=O)c2O)c(O)c(=O)c1 | – | 147% | 147% | 138% | –
15 | CC(=O)Nc1ccc(C(c2ccc(C(C)C)cc(=O)c2O)c2ccc(C(C)C)cc(=O)c2O)cc1 | <0.3 µg/mL | 128% | 0% | 171% | –
16 | CC(C)c1ccc(C(c2ccc(OCc3ccccc3)cc2)c2ccc(C(C)C)cc(=O)c2O)c(O)c(=O)c1 | 4.65 µg/mL | – | 101% | – | T/C (P388 [5]): 152%; T/C (P388 [11]): 148%
17 | CC(C)c1ccc(C(c2ccc(O)cc2)c2ccc(C(C)C)cc(=O)c2O)c(O)c(=O)c1 | <0.3 µg/mL | 0% | – | 195% | T/C (P388 [8]): 139%
18 | CC(C)c1ccc(C(c2cccs2)c2ccc(C(C)C)cc(=O)c2O)c(O)c(=O)c1 | 0.6 µg/mL | 57% | – | 178% | T/C (P388 [12]): 178%
19 | CC(C)c1ccc(C(c2cccc3ccccc23)C(c2ccc(C(C)C)cc(=O)c2O)c2cccc3ccccc23)c(O)c(=O)c1 (stereo unspecified) | <100 µg/mL | – | – | – | T/C (P388 [5]): 98%; T/C (P388 [6]): 96%; T/C (P388 [7]): 95%
20 | COc1ccc(C(c2ccc(C(C)C)cc(=O)c2O)c2ccc(C(C)C)cc(=O)c2O)cc1 | <0.3 µg/mL | 170% | – | 173% | T/C (P388 [10]): 170%; T/C (P388 [9]): 134%
21 | CC(C)c1ccc(C(c2ccccc2)c2ccc(C(C)C)cc(=O)c2O)c(O)c(=O)c1 | <0.3 µg/mL | 0% | – | 188% | T/C (P388 [8]): 132%; T/C (P388 [9]): 150%
